Results taken from patent EP4725941A1, “ARYLAMIDE DERIVATIVE HAVING ANTITUMOR ACTIVITY” (priority 2020, dated 2021).
Where two headings read alike, the source gives them in different places.

Assays:
BRAF = target: T1, BRAF (Homo sapiens, UniProt P15056); assay: BRAF-inhibiting activity, time-resolved fluorescence-fluorescence resonance energy transfer assay; format: biochemical
T1 construct: purchased Eurofins Genomics KK; (BRAF); Thermo Fisher Scientific Inc. (MEK1)
Experimental: The BRAF-inhibiting activity of the compounds listed in Table 3 below was evaluated by the time-resolved fluorescence-fluorescence resonance energy transfer assay as described below.

MEK1 [1] = target: T2, MEK1 (Homo sapiens, UniProt Q02750); assay: MEK1-inhibiting activity, fluorescent polarization method (CRAF/MEK1/ERK2 cascade, IMAP); format: biochemical
T2 construct: purchased Thermo Fisher Scientific Inc. (MEK1, CRAF); Carna Biosciences, Inc. (ERK2)
T2 sequence (Q02750 whole entry): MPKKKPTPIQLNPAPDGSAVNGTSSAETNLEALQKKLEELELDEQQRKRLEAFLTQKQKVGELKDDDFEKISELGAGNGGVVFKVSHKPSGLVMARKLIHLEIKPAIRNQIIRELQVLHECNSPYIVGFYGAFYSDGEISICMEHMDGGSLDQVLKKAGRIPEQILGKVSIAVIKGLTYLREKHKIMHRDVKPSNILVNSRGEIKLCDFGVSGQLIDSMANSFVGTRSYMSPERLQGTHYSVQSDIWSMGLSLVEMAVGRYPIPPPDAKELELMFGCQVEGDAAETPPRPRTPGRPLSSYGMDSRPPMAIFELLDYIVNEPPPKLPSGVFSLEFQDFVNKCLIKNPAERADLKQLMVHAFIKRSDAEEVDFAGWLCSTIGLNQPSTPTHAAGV

Colo-205 = Colo-205 growth-inhibiting activity; format: cell-based; conditions: Table 1, human cancer cells with BRAF mutation
HCT-116 = HCT-116 growth-inhibiting activity; format: cell-based; conditions: Table 1, human cancer cells with RAS mutation
NCI-H2122 = assay: Cell proliferation-inhibiting activity (ATP in viable cells, CellTiter-Glo), NCI-H2122; format: cell-based, human; conditions: NCI-H2122, 96 h; human lung cancer cells, 4 days; read-out: NCI-H2122 IC50
[2] = Human liver microsome stability; format: in vitro ADME; conditions: human liver microsomes, pH 7.4
A549 = assay: Cell proliferation-inhibiting activity (ATP in viable cells, CellTiter-Glo), A549; format: cell-based, human; conditions: A549, 96 h; human lung cancer cells, 4 days; read-out: A549 IC50
Calu-6 = assay: Cell proliferation-inhibiting activity (ATP in viable cells, CellTiter-Glo), Calu-6; format: cell-based, human; conditions: Calu-6, 96 h; human lung cancer cells, 4 days; read-out: Calu-6 IC50
MEK1 [3] = target: T2, MEK1; assay: MEK1-inhibiting activity, fluorescent polarization method (CRAF/MEK1/ERK2 cascade, IMAP); format: biochemical; conditions: Table 3; read-out: MEK1 IC50
Experimental: The MEK1-inhibiting activity of the compounds listed in Table 3 below were evaluated by the fluorescent polarization method as described below.

T1 sequence (P15056 417-766 limits assumed): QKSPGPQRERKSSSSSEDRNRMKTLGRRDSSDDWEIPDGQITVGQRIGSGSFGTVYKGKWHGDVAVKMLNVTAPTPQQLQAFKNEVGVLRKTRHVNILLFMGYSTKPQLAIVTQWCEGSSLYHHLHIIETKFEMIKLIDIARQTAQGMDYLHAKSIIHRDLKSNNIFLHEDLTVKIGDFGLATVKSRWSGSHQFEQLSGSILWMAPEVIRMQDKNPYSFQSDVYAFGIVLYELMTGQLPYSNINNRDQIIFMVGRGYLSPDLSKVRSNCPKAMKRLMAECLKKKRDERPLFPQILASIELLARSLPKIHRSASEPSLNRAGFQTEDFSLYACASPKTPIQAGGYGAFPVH

SMILES | IC50 (BRAF; Table 1; read-out: BRAF IC50) [µM] | IC50 (MEK1 [1]; Table 1) [µM] | IC50 (Colo-205) [µM] | IC50 (HCT-116) [µM] | IC50 (NCI-H2122) [µM] | IC50 (BRAF; Table 3; read-out: BRAF IC50) [µM] | microsomal CLint at 0.99 µM [2] [µL/min/mg] | IC50 (MEK1 [1]; Table 3) [µM] | IC50 (A549) [µM] | IC50 (Calu-6) [µM] | IC50 (BRAF; read-out: BRAF IC50; Table 3) [µM] | IC50 (MEK1 [3]) [µM]
CNS(=O)(=O)NCC(=O)N(Cc1cc(C(=O)NOCCO)c(Nc2ccc(I)cc2F)c(F)c1F)OC [AA-1, 3,4-Difluoro-2-(2-fluoro-4-iodoanilino)-N-(2-hydroxyethoxy)-5-[[methoxy-[2-(methylsulfamoylamino)acetyl]amino]methyl]benzamide] | 0.003 | 0.021 | 0.0004 | 0.002 |  |  |  |  |  |  |  | 
CNS(=O)(=O)Nc1cccc(Cc2c(CC(=O)NOCCO)c3ccc(Oc4ncccn4)cc3oc2=O)c1F [AA-2, 2-[3-[[2-Fluoro-3-(methylsulfamoylamino)phenyl]methyl]-2-oxo-7-pyrimidin-2-yloxychromen-4-yl]-N-(2-hydroxyethoxy)acetamide] | 2.2 | > 8 |  | 45 |  |  |  |  |  |  |  | 
CNS(C)(=O)=Nc1nccc(Cc2cc(C(N)=O)c(Nc3ccc(I)cc3F)c(F)c2F)c1F (stereo not drawn) [Compound A-43, 3,4-Difluoro-2-(2-fluoro-4-iodoanilino)-5-[[3-fluoro-2-[[methyl-(methylamino)-oxo-λ6-sulfanylidene]amino]pyridin-4-yl]methyl]benzamide] |  |  |  |  | 0.013 | 0.01 | 37 | 0.041 | 0.002 |  |  | 
CNS(=O)(=O)Nc1nccc(Cc2cc(C(N)=O)c(Nc3ccc4sccc4c3F)c(F)c2F)c1F [Compound H-3, 3,4-difluoro-2-[(4-fluoro-1-benzothiophen-5-yl)amino]-5-[[3-fluoro-2-(methylsulfamoylamino)pyridin-4-yl]methyl]benzamide] |  |  |  |  |  | 0.004 | 149 | 0.002 |  |  |  | 
CNS(=O)(=O)Nc1nccc(Cc2cc(C(N)=O)c(Nc3ccc(I)cc3F)cn2)c1F [Compound L-1, 5-(2-Fluoro-4-iodoanilino)-2-[[3-fluoro-2-(methylsulfamoylamino)pyridin-4-yl]methyl]pyridine-4-carboxamide] |  |  |  |  | 0.017 | 0.002 | 10 | 0.006 | 0.021 | 0.041 |  | 
CNS(=O)(=O)Nc1nccc(Cc2cc(C(N)=O)c(Nc3ccc(I)cc3F)n3cncc23)c1F [Compound M-1, 5-(2-Fluoro-4-iodoanilino)-8-[[3-fluoro-2-(methylsulfamoylamino)pyridin-4-yl]methyl]imidazo[1,5-a]pyridine-6-carboxamide] |  |  |  |  | 0.013 |  | 59 |  | 0.027 | 0.028 | 0.004 | 0.005
CNS(=O)(=O)Nc1cccc(Oc2cc(F)cc(Nc3ccc(I)cc3F)c2C(N)=O)c1 [Ref-2, 4-Fluoro-2-(2-fluoro-4-iodoanilino)-6-[3-(methylsulfamoylamino)phenoxy]benzamide, reference compound] |  |  |  |  | 0.003 |  | 12 |  | 0.008 | 0.035 | 0.012 | 0.364
CC(C)S(=O)(=O)Nc1cccc(Oc2cncc(Nc3ccc(I)cc3F)c2C(N)=O)c1 [Ref-3, 3-(2-Fluoro-4-iodoanilino)-5-[3-(propan-2-ylsulfonylamino)phenoxy]py ridine-4-carboxamide, reference compound] |  |  |  |  | 0.001 |  | 11 |  | 0.002 | 0.01 | 0.012 | 0.005
